Results taken from US12570662B2, “Substituted pyrrolo[1,2-b]pyridazines as bifunctional degraders of interleukin-1 receptor-associated kinases” (Nurix Therapeutics, Inc., priority 2021, dated 2026).

Target: T1, IRAK4 (Homo sapiens, UniProt Q9NWZ3)
T1 construct: C-terminal HiBiT-tagged Jurkat cells (polyclonal cell line or clone 8D5); endogenous in cells; host or cells: Jurkat cells (polyclonal cell line or clone 8D5), HiBiT-tagged
T1 sequence (Q9NWZ3 1-460): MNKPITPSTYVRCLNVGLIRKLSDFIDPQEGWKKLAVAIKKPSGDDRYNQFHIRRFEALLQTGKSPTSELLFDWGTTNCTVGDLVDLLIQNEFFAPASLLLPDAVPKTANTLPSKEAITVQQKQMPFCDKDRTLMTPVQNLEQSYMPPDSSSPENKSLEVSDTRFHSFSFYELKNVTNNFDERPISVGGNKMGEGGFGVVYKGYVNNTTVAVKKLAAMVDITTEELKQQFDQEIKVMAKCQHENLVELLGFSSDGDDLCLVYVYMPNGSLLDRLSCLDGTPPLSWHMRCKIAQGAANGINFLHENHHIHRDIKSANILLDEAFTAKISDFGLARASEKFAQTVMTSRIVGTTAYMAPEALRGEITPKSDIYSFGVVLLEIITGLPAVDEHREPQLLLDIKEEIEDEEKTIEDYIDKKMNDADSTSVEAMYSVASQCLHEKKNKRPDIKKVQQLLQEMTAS
Experiment: IRAK4 Degradation HiBit Assay
Assay type: cell-based
Conditions: C-terminal HiBiT-tagged Jurkat cells, 4 hrs incubation; for DC50: % IRAK4 remaining, four-parameter fit (IC50 used as DC50); for Dmax: from fit of % IRAK4 remaining, read-out: Dmax
In short: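 Degradation was quantified by luminescence after adding lytic detection reagent containing LgBiT to HiBiT-tagged Jurkat cells (polyclonal or clone 8D5). Cells were treated 4 h at 32 °C across 11 concentrations from 10 μM to 0.1 nM final. Four-parameter curve fitting of % IRAK4 remaining versus DMSO gave DC50 and Dmax.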

SMILES | DC50 [nM] | Dmax [%]
N#Cc1cnn2c(-c3cc(N[C@@H]4CCOC4)c(-c4nnc(N5CC6CCC(C5)N6CC5CCN(c6ccc(C7CCC(=O)NC7=O)cc6)CC5)s4)cn3)ccc2c1 (mixture of isomers) [Example 98, 7-[5-(5-{8-[(1-{4-[(3RS)-2,6-dioxopiperidin-3-yl]phenyl}piperidin-4-yl)methyl]-3,8-diazabicyclo[3.2.1]octan-3-yl}-1,3,4-thiadiazol-2-yl)-4-{[(3R)-oxolan-3-yl]amino}pyridin-2-yl]pyrrolo[1,2-b]pyridazine-3-carbonitrile] | 16 | 105
N#Cc1cnn2c(-c3cc(NC4CCOCC4)c(-c4nnc(C56CCC(C(=O)N7CCc8cc(N9CCC(=O)NC9=O)ccc8C7)(CC5)CC6)s4)cn3)ccc2c1 [Example 63, 7-[5-(5-{4-[6-(2,4-dioxo-1,3-diazinan-1-yl)-1,2,3,4-tetrahydroisoquinoline-2-carbonyl]bicyclo[2.2.2]octan-1-yl}-1,3,4-thiadiazol-2-yl)-4-[(oxan-4-yl)amino]pyridin-2-yl]pyrrolo[1,2-b]pyridazine-3-carbonitrile] | 29 | 95
N#Cc1cnn2c(-c3cc(NC4CCOCC4)c(-c4nnc(N5CC6CCC(C5)N6CC5CCN(c6ccc([C@H]7CCC(=O)NC7=O)cc6)CC5)s4)cn3)ccc2c1 (single isomer, unassigned) [Example 110] | 50 | 50
N#Cc1cnn2c(-c3cc(NC4CCOCC4)c(-c4nnc(N5CC6CCC(C5)N6CC5CCN(c6ccc([C@@H]7CCC(=O)NC7=O)cc6)CC5)s4)cn3)ccc2c1 (single isomer, unassigned) [Example 109] | 52 | 94
CC1(Nc2cc(-c3ccc4cc(C#N)cnn34)ncc2-c2nnc(N3CCN(CC4CCN(c5ccc(C6CCC(=O)NC6=O)cn5)CC4)CC3)s2)COC1 (racemic) [Example 58, rac-7-[5-(5-{4-[(1-{5-[(3R)-2,6-dioxopiperidin-3-yl]pyridin-2-yl}piperidin-4-yl)methyl]piperazin-1-yl}-1,3,4-thiadiazol-2-yl)-4-[(3-methyloxetan-3-yl)amino]pyridin-2-yl]pyrrolo[1,2-b]pyridazine-3-carbonitrile] | 21 | 113
C[C@@H](C#N)Nc1cc(-c2ccc3cc(C#N)cnn23)ncc1-c1nnc(N2CC3CCC(C2)N3CC2CCN(c3ccc([C@@H]4CCC(=O)NC4=O)cn3)CC2)s1 (single isomer, unassigned) [Example 145] | 22 | 113
CN(CC1CCN(c2ccc([C@@H]3CCC(=O)NC3=O)cn2)CC1)[C@H]1CC[C@H](c2nnc(-c3cnc(-c4ccc5cc(C#N)cnn45)cc3NC3CCOCC3)s2)CC1 (racemic) [Example 82, 7-{4-[(oxan-4-yl)amino]-5-{5-[(1r,4r)-4-{[(1-{5-[(3RS)-2,6-dioxopiperidin-3-yl]pyridin-2-yl}piperidin-4-yl)methyl](methyl)amino}cyclohexyl]-1,3,4-thiadiazol-2-yl}pyridin-2-yl}pyrrolo[1,2-b]pyridazine-3-carbonitrile] | 8 | 114
N#Cc1cnn2c(-c3cc(N[C@H]4CCOC4)c(-c4nnc(N5CC6CCC(C5)N6CC5CCN(c6ccc(C7CCC(=O)NC7=O)cn6)CC5)s4)cn3)ccc2c1 (mixture of isomers) [Example 87, 7-[5-(5-{8-[(1-{5-[(3RS)-2,6-dioxopiperidin-3-yl]pyridin-2-yl}piperidin-4-yl)methyl]-3,8-diazabicyclo[3.2.1]octan-3-yl}-1,3,4-thiadiazol-2-yl)-4-{[(3S)-oxolan-3-yl]amino}pyridin-2-yl]pyrrolo[1,2-b]pyridazine-3-carbonitrile] | 47 | 61
